Measurements: patent EP4008716A1, “NOVEL INHIBITORS OF INSULIN-LIKE GROWTH FACTOR 2 MRNA BINDING PROTEINS” (Martin-Luther-Universität Halle-Wittenberg, priority 2020, dated 2022)

Tests used:
[1] = tested on: ES-2 cells; assay: Cytotoxicity / cell vitality by cell confluency (IncuCyte live-cell imaging) relative to DMSO controls; assay type: cell-based; conditions: Homo sapiens, determined in 11 analyses with three technical replicates each
[2] = tested on: ES-2 cells; assay: as above; assay type: cell-based; conditions: ovarian cancer-derived ES-2 cells, 72 h post compound application, eleven concentrations, two-fold dilution from 20µM, mean of three independent studies
Protocol: All novel inhibitors were explored for their cytotoxic activity in ovarian cancer-derived ES-2 cells. In these cell models, BTYNB was prior shown to impair cell vitality and metastatic potential in vitro and cancer mouse models (15). For the respective studies ES-2 cells were plated and exposed to increasing concentration of the compounds and cell vitality was monitored by determining cell confluency relative to DMSO controls using an IncuCyte cell imaging system, essentially as described recently (15). For determining the impact of the developed compounds on ES-2 cell vitality, cells were cultured in Dulbecco's modified eagle medium (DMEM) containing phenol red, 4.5 g/L D-Glucose, 0.11 g/L sodium pyruvate, 10% (v/v) fetal bovine serum (FBS) and 2 mM GlutaMAX (Sigma-Aldrich, Darmstadt, Germany). Cells were maintained in under humidified conditions at 37 °C, 5% CO2. For cytotoxicity studies, cells were seeded in 96-well flat-bottom plates at 2 x 10^3 cells per well in 100 µL supplemented DMEM and incubated for 24 h prior to addition of BTYNB derivatives. Compounds were analyzed at eleven concentrations using a two-fold dilution with an initial compound concentration of 20µM in DMSO (solvent). Cells treated with 0.002% (v/v) DMSO served as controls. Cytotoxicity of compound concentrations was determined 72 h post compound application by monitoring cell confluency using an IncuCyte Systems for Live-Cell Imaging. Cell confluency was determined with the IncuCyte 2019B Rev2 software. Confluency of controls was set to 1 (100%) and altered confluency at distinct compound concentrations was calculated as relative confluency. The mean relative confluency at compound concentrations was analyzed in three independent studies with three technical replicates each. The mean values of three analyses were plotted against the logarithmic concentration of compounds and fitted by the non-linear module [Sigmoidal, 4PL, X is log(concentration)] using GraphPad Prism V9(86) for macOS. In Table 1 compounds with EC50 values, indicating the potency of the 58 developed compounds to impair cell vitality, are listed. […] Table 2: EC-values of the synthesized compounds of formula (I)

Row | Compound | EC50 ([2]; Homo sapiens) [nM] | other results
1 | NC(=O)c1ccccc1N=Cc1ccc(Br)s1 [BTYNB, 2-{[(5-bromo-2-thienyl)methylene]amino}benzamide] |  | EC50 [1]: 5.9 µM
2 | COc1ccc(C(=O)Nc2sc(Cc3ccccc3)cc2C(N)=O)cc1COc1ccc(Cl)cc1 [compound 52, 5-Benzyl-2-{3-[(4-chlorophenoxy)methyl]-4-methoxybenzamido}thiophene-3-carboxamide] | 1020 | 
3 | COc1ccc(C(=O)Nc2sc(C(C)C)cc2C(N)=O)cc1COc1ccccc1Cl [compound 46, 2-({3-[(2-Chlorophenoxy)methyl]-4-methoxybenzoyl}amino)-5-isopropyl-3-thiophenecarboxamide] | 2230 | 
4 | NC(=O)c1ccccc1NC(=O)CN1CCN(Cc2ccc(Cl)cc2)CC1 [compound 23, 2-({[4-(4-Chlorobenzyl)-1-piperazinyl]acetyl}amino)benzamide] | 2990 | 
5 | CC(C)c1cc(C(N)=O)c(NC(=O)Cc2ccc(Cl)c(Cl)c2)s1 [compound 42, 2-{[(3,4-Dichlorophenyl)acetyl]amino}-5-isopropyl-3-thiophenecarboxamide] | 2450 | 
6 | CNC(=O)c1ccccc1NC(=O)c1cc(C)c(C)s1 [compound 8, 4,5-Dimethyl-N-[2-(methylcarbamoyl)phenyl]thiophene-2-carboxamide] | 2830 | 
7 | NC(=O)c1cc(Cc2ccccc2)sc1NC(=O)c1cccc(COc2ccc(Cl)cc2Cl)c1 [compound 50, 5-Benzyl-2-{3-[(2,4-dichlorophenoxy)methyl]benzamido}thiophene-3-carboxamide] | 47 | 
8 | NC(=O)c1ccccc1NC(=O)CN1CCN(Cc2ccccc2Cl)CC1 [compound 24, 2-({[4-(2-Chlorobenzyl)-1-piperazinyl]acetyl}amino)benzamide] | 9580 | 
9 | CCc1c(C(=O)Nc2sc(Cc3ccccc3)cc2C(N)=O)csc1C [compound 33, 5-Benzyl-2-{[(4-ethyl-5-methyl-3-thienyl)carbonyl]amino}-3-thiophenecarboxamide] | 5060 | 
10 | COc1ccc(C(=O)Nc2sc(C(C)C)cc2C(N)=O)cc1COc1ccc(Br)cc1 [compound 58, 2-({3-[(4-Bromophenoxy)methyl]-4-methoxybenzoyl}amino)-5-isopropyl-3-thiophenecarboxamide] | 8340 | 
11 | NC(=O)c1ccccc1NC(=O)c1cc(Cl)cc(Cl)c1 [compound 18, N-[2-(aminocarbonyl)phenyl]-3,5-dichlorobenzamide] | 5140 | 
12 | CCc1cc(C(=O)Nc2sc(Cc3ccccc3)cc2C(N)=O)cs1 [compound 32, 5-Benzyl-2-{[(5-ethyl-3-thienyl)carbonyl]amino}-3-thiophenecarboxamide] | 1900 | 
13 | NC(=O)c1cc(Cc2ccccc2)sc1NC(=O)Cc1cccs1 [compound 34, 5-Benzyl-2-[(2-thienylacetyl)amino]-3-thiophenecarboxamide] | 1160 | 
14 | 2-({4-[(2-Bromophenoxy)methyl]benzoyl}amino)-5-isopropyl-3-thiophenecarboxamide [compound 57] |  | EC50 [2]: 3740 nM
15 | COc1ccc(C(=O)Nc2sc(Cc3ccccc3)cc2C(N)=O)cc1COc1cccc(Cl)c1Cl [compound 45, 5-Benzyl-2-({3-[(2,3-dichlorophenoxy)methyl]-4-methoxybenzoyl}amino)-3-thiophenecarboxamide] | 401 | 
16 | NC(=O)c1ccsc1NC(=O)CN1CCN(Cc2ccc(Cl)c(Cl)c2)CC1 [compound 56, 2-{2-[4-(3,4-Dichlorobenzyl)piperazin-1-yl]acetamido}thiophene-3-carboxamide] | 781 | 
17 | NC(=O)c1ccccc1NC(=O)CN1CCN(Cc2ccc(Cl)c(Cl)c2)CC1 [compound 20, 2-({[4-(3,4-Dichlorobenzyl)-1-piperazinyl]acetyl}amino)benzamide] | 1220 | 
18 | COc1cc(-c2nc3ccccc3c(=O)[nH]2)ccc1OCc1ccccc1[N+](=O)[O-] [compound 3, 2-{3-Methoxy-4-[(2-nitrobenzyl)oxy]phenyl}-4(3H)-quinazolinone] | 476 | 
